Experiment [1] addresses T1, DDB1 (Homo sapiens, UniProt Q16531). Nature of the experiment: SPR. The format is binding. To be noted: read-out: estimated KD; biotinylated protein immobilised; pH […] °C, […] DMSO.
Experiment [2] deals with T1, DDB1. Nature of the experiment: SPR. Format: binding. To be noted: biotinylated protein immobilised; pH […] °C, […] DMSO; site at W1047, Y1114.

Like-named read-outs stand apart in the source and are kept apart here.

T1 sequence (Q16531 2-1140): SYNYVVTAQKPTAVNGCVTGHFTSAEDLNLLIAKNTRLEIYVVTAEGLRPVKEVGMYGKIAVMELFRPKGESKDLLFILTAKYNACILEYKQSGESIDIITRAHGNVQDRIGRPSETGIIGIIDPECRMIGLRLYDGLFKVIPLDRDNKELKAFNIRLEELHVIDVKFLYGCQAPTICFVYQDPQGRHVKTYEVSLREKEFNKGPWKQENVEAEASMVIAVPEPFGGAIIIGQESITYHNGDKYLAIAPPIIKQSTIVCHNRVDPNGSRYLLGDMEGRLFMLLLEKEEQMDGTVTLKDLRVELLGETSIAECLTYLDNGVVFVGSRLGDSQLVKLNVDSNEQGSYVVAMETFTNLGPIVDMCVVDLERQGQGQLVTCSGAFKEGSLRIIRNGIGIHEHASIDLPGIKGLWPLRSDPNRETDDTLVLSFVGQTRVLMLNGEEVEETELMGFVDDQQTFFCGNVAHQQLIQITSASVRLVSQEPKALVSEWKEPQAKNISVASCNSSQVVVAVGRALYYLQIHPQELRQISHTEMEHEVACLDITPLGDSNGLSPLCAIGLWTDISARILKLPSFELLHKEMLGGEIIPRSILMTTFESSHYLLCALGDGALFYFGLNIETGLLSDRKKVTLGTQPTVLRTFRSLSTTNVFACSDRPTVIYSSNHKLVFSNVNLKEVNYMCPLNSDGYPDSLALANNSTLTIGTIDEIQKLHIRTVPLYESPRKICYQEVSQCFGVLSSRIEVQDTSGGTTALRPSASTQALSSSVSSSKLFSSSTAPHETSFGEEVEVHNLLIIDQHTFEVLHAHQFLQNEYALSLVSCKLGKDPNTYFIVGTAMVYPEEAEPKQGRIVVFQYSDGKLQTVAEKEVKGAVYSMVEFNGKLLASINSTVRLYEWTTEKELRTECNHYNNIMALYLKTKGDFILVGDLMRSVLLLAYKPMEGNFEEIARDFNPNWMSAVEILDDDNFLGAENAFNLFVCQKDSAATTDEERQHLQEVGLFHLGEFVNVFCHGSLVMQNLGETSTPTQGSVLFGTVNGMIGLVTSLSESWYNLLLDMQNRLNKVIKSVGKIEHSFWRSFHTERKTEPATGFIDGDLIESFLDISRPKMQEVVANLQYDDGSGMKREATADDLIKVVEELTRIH

In general, Kd refers to the concentration at which binding is half-saturated. `CCOc1cccc([C@H]2CC(=O)Nc3c2c(C)nn3-c2ccc3nncn3n2)c1` [(R)-XS381952]: the Kd in experiment [1] is > 73 µM.
As for `CCOc1cccc([C@@H]2CC(=O)Nc3c2c(C)nn3-c2ccc3nncn3n2)c1` [(S)-XS381952], the Kd in experiment [2] amounted to 2 µM.

(Values after publication PMC11785093 (bioRxiv, 2025).)
